Measured values published in patent US20210395239A1 (Hoffmann-La Roche Inc., priority 2018, published 2021).

Assays:
[1] = target: T1, hTLR9 (Homo sapiens, UniProt Q9NR96); test: HEK293-Blue-hTLR-9 cells assay (SEAP reporter, ODN2006 stimulation); type: cell-based; parameters: host or cells: HEK293 (HEK-Blue hTLR9); details: HEK293-Blue-hTLR9 cells, ODN2006, 20 hrs; read-out: HEK/hTLR9 IC50
T1 sequence (Q9NR96 26-1032): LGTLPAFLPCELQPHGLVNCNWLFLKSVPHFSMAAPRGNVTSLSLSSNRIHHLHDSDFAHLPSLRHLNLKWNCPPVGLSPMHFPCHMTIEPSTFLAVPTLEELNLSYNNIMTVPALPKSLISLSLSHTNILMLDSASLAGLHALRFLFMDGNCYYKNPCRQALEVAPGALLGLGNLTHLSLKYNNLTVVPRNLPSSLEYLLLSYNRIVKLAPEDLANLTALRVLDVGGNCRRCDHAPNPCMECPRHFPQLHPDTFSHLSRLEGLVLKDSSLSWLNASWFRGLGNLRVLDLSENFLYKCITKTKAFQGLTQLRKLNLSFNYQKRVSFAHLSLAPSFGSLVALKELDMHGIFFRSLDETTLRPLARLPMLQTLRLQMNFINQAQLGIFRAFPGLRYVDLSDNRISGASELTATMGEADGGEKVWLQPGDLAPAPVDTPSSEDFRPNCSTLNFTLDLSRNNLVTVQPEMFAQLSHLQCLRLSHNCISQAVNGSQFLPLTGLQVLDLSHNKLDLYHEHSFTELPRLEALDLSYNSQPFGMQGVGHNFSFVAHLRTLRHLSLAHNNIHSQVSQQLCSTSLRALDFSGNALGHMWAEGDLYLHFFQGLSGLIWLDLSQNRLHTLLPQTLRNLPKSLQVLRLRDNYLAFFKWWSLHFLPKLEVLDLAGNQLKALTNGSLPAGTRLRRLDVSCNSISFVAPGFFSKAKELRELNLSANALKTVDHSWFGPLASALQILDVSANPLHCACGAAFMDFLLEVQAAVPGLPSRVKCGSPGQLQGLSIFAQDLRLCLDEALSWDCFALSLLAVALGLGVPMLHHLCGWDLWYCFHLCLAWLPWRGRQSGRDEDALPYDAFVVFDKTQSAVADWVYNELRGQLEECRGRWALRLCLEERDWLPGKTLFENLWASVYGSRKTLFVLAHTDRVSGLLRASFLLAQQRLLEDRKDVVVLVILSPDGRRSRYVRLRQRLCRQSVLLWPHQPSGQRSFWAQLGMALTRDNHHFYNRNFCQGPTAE
Outline: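 HEK293-Blue-hTLR9 cells with NF-κB/AP-1-driven SEAP reporter treated with serially diluted compound (1% DMSO final) plus ODN2006 for 20 h at 37 °C. Supernatant SEAP measured with QUANTI-Blue, 2 h at 37 °C, absorbance 620–655 nm; antagonism seen as reduced reporter signal.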

[2] = target: T2, CYP3A4 (Homo sapiens, UniProt P08684); test: CYP inhibition assay in human liver microsome, CYP3A4; type: in vitro ADME; details: human, human liver microsomes, probe midazolam 5 μM, substrate midazolam 5 μM, third value of 2C9/2D6/3A4
T2 construct: tissue BD-Gentest 452117; host or cells: human liver microsomes
Method: This is a high throughput screening assay used for assessment of reversible inhibition of CYP2C9, CYP2D6, and CYP3A4 activity of test compounds in human liver microsome (HLM) in early discovery stage.
10 mM DMSO stock solutions of test compounds were diluted in DMSO to generate 2 mM intermediate stock solution. 250 nL, of intermediate stock solution were transferred in duplicate into 3 separate 384 well microtitre plates (assay-ready plates). A mixture of HLM and each substrate was made up. 45 μL of HLM substrate mix was then transferred to each well of an assay ready plate and mixed. The negative (solvent) and positive controls (standard inhibitor for each CYP) were included in each assay ready plate. The assay ready plate was warmed to 37° C. in an incubator over 10 minutes. 5 μL pre-warmed NADPH regenerating system was added to each incubation well to start the reaction. Final incubation volume was 50 μL. The assay plate then was placed back in the 37° C. incubator. After incubation (10 minutes for CYP2D6) for 5 minutes, incubates were quenched by addition of 50 μL 100% acetonitrile containing internal standards (400 ng/mL 13C6-4′-OH-Diclofenac, 20 ng/mL D3-Dextrorphan and 20 ng/mL D4-1′OH-Midazolam). The supernatants were collected for RapidFire/MS/MS analysis.
RapidFire online solid phase extraction/sample injection system (Agilent) coupled with API4000 triple quadrupole mass spectrometer (AB Sciex) were used for sample analysis. The mobile phase composed of acetonitrile and water supplemented with 0.1% formic acid. A C4 solid phase extraction cartridge is used for sample separation. MS detection is achieved in positive ion MRM mode.
Peak areas for substrate, metabolite and internal standard are determined using the RapidFire integrator software (version 3.6.12009.12296). Peak area ratios (PAR) of metabolite and internal standard (stable-labelled metabolite) are then calculated. The measurement window for each experiment is then defined:
PAR (0% activity)=average PAR for all incubations containing concentrated inhibitor; Par (100% activity)=average PAR for all incubations containing no inhibitor (DMSO controls); % Activity (test inhibitor)=[PAR (test inhibitor)−PAR (0% activity)]/[PAR (100% activity)−PAR (0% activity)]; % Inhibition (test inhibitor)=100-% Activity (test inhibitor).

T2 sequence (P08684 whole entry): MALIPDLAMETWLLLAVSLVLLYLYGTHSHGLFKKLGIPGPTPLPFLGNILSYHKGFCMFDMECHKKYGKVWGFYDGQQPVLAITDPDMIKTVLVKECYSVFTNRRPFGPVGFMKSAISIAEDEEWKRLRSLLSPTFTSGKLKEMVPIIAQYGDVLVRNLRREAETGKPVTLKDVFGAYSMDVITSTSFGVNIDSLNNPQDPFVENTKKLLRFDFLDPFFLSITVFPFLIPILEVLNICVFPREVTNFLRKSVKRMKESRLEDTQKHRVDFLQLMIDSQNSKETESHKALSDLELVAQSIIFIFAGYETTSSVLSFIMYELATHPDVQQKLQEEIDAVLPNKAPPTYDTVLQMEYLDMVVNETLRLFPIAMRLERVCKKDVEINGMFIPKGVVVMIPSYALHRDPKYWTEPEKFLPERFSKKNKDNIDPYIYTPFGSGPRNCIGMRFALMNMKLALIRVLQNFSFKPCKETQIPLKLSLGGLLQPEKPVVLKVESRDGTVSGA

C[C@@H]1CN(c2ccc(C#N)c3ncccc23)C[C@H](CN2CCC(c3cccc(N4CCNCC4)c3)C2)O1 (stereo partly drawn) [Example 1, 5-[(2R,6S)-2-methyl-6-[[3-(3-piperazin-1-ylphenyl)pyrrolidin-1-yl]methyl]morpholin-4-yl]quinoline-8-carbonitrile]
IC50 [1]: 136 nM | inhibition at 5 min, 10 µM [2]: 14%

C[C@@H]1CN(c2ccc(C#N)c3ncccc23)C[C@H](CN2CCC(c3cccc(C4CCNCC4)c3)CC2)O1 [Example 2, 5-[(2R,6S)-2-methyl-6-[[4-[3-(4-piperidyl)phenyl]-1-piperidyl]methyl]morpholin-4-yl]quinoline-8-carbonitrile]
IC50 [1]: 74 nM | inhibition at 5 min, 10 µM [2]: 18%

C[C@@H]1CN(c2ccc(C#N)c3ncccc23)C[C@H](CN2CC(c3ccc(N4CCNCC4)cc3)C2)O1 [Example 3, 5-[(2R,6S)-2-methyl-6-[[3-(4-piperazin-1-ylphenyl)azetidin-1-yl]methyl]morpholin-4-yl]quinoline-8-carbonitrile]
IC50 [1]: 52 nM | inhibition at 5 min, 10 µM [2]: 4.5%

C[C@@H]1CN(c2ccc(C#N)c3ncccc23)C[C@H](CN2CC(c3cccc(N4CCNCC4)c3)C2)O1 [Example 4, 5-[(2R,6S)-2-methyl-6-[[3-(3-piperazin-1-ylphenyl)azetidin-1-yl]methyl]morpholin-4-yl]quinoline-8-carbonitrile]
IC50 [1]: 68 nM | inhibition at 5 min, 10 µM [2]: 0.5%

CO[C@H]1CN(c2cc(C)nc(N3CCN(C[C@H]4CN(c5ccc(C#N)c6nccnc56)C[C@@H](C)O4)CC3)n2)C[C@@H]1N [Example 104, 8-[(2S,6R)-2-[[4-[4-[(3S,4S)-3-amino-4-methoxy-pyrrolidin-1-yl]-6-methyl-pyrimidin-2-yl]piperazin-1-yl]methyl]-6-methyl-morpholin-4-yl]quinoxaline-5-carbonitrile]
IC50 [1]: 70 nM | inhibition at 5 min, 10 µM [2]: -12%

CO[C@H]1CN(c2nc(C)cc(N3CCN(C[C@H]4CN(c5ccc(C#N)c6nccnc56)C[C@@H](C)O4)CC3)n2)C[C@@H]1N [Example 106, 8-[(2S,6R)-2-[[4-[2-[(3S,4S)-3-amino-4-methoxy-pyrrolidin-1-yl]-6-methyl-pyrimidin-4-yl]piperazin-1-yl]methyl]-6-methyl-morpholin-4-yl]quinoxaline-5-carbonitrile]
IC50 [1]: 46 nM | inhibition at 5 min, 10 µM [2]: 20.5%

C[C@@H]1CN(c2ccc(C#N)c3nccnc23)C[C@H](CN2CCN(c3ccnc(N4C[C@H](N)[C@@H](F)C4)n3)CC2)O1 [Example 107, 8-[(2S,6R)-2-[[4-[2-[(3S,4S)-3-amino-4-fluoro-pyrrolidin-1-yl]pyrimidin-4-yl]piperazin-1-yl]methyl]-6-methyl-morpholin-4-yl]quinoxaline-5-carbonitrile]
IC50 [1]: 80 nM | inhibition at 5 min, 10 µM [2]: 34.5%

C[C@@H]1CN(c2ccc(C#N)c3ncccc23)C[C@H](CN2CCN(c3ccnc(N4C[C@H](N)[C@@H](F)C4)n3)CC2)O1 [Example 110, 5-[(2S,6R)-2-[[4-[2-[(3S,4S)-3-amino-4-fluoro-pyrrolidin-1-yl]pyrimidin-4-yl]piperazin-1-yl]methyl]-6-methyl-morpholin-4-yl]quinoline-8-carbonitrile]
IC50 [1]: 68 nM | inhibition at 5 min, 10 µM [2]: 44%

Cc1cc(N2CCN(C[C@H]3CN(c4ccc(C#N)c5nccnc45)C[C@@H](C)O3)CC2)nc(N2CC(N)C2)n1 [Example 112, 8-[(2S,6R)-2-[[4-[2-(3-aminoazetidin-1-yl)-6-methyl-pyrimidin-4-yl]piperazin-1-yl]methyl]-6-methyl-morpholin-4-yl]quinoxaline-5-carbonitrile]
IC50 [1]: 65 nM | inhibition at 5 min, 10 µM [2]: -5%

Cc1cc(N2CCNCC2)nc(N2CCN(C[C@H]3CN(c4ccc(C#N)c5nccnc45)C[C@@H](C)O3)CC2)n1 [Example 114, 8-[(2R,6S)-2-methyl-6-[[4-(4-methyl-6-piperazin-1-yl-pyrimidin-2-yl)piperazin-1-yl]methyl]morpholin-4-yl]quinoxaline-5-carbonitrile]
IC50 [1]: 62 nM | inhibition at 5 min, 10 µM [2]: 16%

Cc1ccc(N2C[C@H](CN3CCN(c4nccc(N5CCNCC5)n4)CC3)O[C@H](C)C2)c2nccnc12 [Example 116, (2R,6S)-2-methyl-4-(8-methylquinoxalin-5-yl)-6-[[4-(4-piperazin-1-ylpyrimidin-2-yl)piperazin-1-yl]methyl]morpholine]
IC50 [1]: 89 nM | inhibition at 5 min, 10 µM [2]: 8%

Cc1ccc(N2C[C@H](CN3CCN(c4ccnc(N5CCNCC5)n4)CC3)O[C@H](C)C2)c2nccnc12 [Example 117, (2R,6S)-2-methyl-4-(8-methylquinoxalin-5-yl)-6-[[4-(2-piperazin-1-ylpyrimidin-4-yl)piperazin-1-yl]methyl]morpholine]
IC50 [1]: 109 nM | inhibition at 5 min, 10 µM [2]: 10%

C[C@@H]1CN(c2ccc(C#N)c3nccnc23)C[C@H](CN2CCN(c3nccc(N4C[C@@H](N)[C@H](F)C4)n3)CC2)O1 [Example 119, 8-[(2S,6R)-2-[[4-[4-[(3R,4R)-3-amino-4-fluoro-pyrrolidin-1-yl]pyrimidin-2-yl]piperazin-1-yl]methyl]-6-methyl-morpholin-4-yl]quinoxaline-5-carbonitrile]
IC50 [1]: 94 nM | inhibition at 5 min, 10 µM [2]: 23.5%

[2H]c1nc2c(C#N)ccc(N3C[C@H](CN4CCN(c5nc(C)cc(N6CC(N)C6)n5)CC4)O[C@H](C)C3)c2nc1[2H] [Example 124, 8-[(2S,6R)-2-[[4-[4-(3-aminoazetidin-1-yl)-6-methyl-pyrimidin-2-yl]piperazin-1-yl]methyl]-6-methyl-morpholin-4-yl]-2,3-dideuterio-quinoxaline-5-carbonitrile]
IC50 [1]: 31 nM | inhibition at 5 min, 10 µM [2]: 16%

[2H]c1ccc2c(N3C[C@H](CN4CCN(c5ccc(N6CC(C)(N)C6)nc5)CC4)O[C@H](C)C3)ccc(C#N)c2n1 [Example 132, 5-[(2S,6R)-2-[[4-[6-(3-amino-3-methyl-azetidin-1-yl)-3-pyridyl]piperazin-1-yl]methyl]-6-methyl-morpholin-4-yl]-2-deuterio-quinoline-8-carbonitrile]
IC50 [1]: 140 nM | inhibition at 5 min, 10 µM [2]: 7.5%

[2H]c1ccc2c(N3C[C@H](CN4CCN(c5nc(C)cc(N6C[C@H](OC)[C@@H](N)C6)n5)CC4)O[C@H](C)C3)ccc(C#N)c2n1 [Example 134, 5-[(2S,6R)-2-[[4-[4-[(3S,4S)-3-amino-4-methoxy-pyrrolidin-1-yl]-6-methyl-pyrimidin-2-yl]piperazin-1-yl]methyl]-6-methyl-morpholin-4-yl]-2-deuterio-quinoline-8-carbonitrile]
IC50 [1]: 48 nM | inhibition at 5 min, 10 µM [2]: 47.5%
